Experiments:
[1] = test system: patients with advanced solid tumors; assay: Phase I 3+3 dose escalation: DLT, MTD and recommended dose; conditions: in vivo, iv
[2] = background statement, no reference given, cited from earlier work
[3] = single agent in a phase I trial; cited from earlier work

## Cilengitide
[1]
  recommended dose of cilengitide for subsequent study (recommended phase II dose): 2000 mg
[2]
  route of clearance: predominantly renally cleared
  terminal half-life: 3 to 5 h
[2]; estimated
  minimum washout: 24 h
[3]
  maximum tolerated dose (MTD), single agent: not reached

From publication PMC9594487 (Cancer chemotherapy and pharmacology, 2017)
